Measured values taken from paper PMC10609061, “Detection of Various Traditional Chinese Medicinal Metabolites as Angiotensin-Converting Enzyme Inhibitors: Molecular Docking, Activity Testing, and Surface Plasmon Resonance Approaches” (Molecules, 2023).

Columns and labels:
[1] = target: T1, recombinant soluble C domain of ACE1 (sACE1) (Homo sapiens, UniProt P12821); assay: SPR determination of affinity between TCM metabolites and immobilized sACE1 (Biacore T200, CM5 chip); type: binding; settings: for Binding to sACE1 by SPR (in words): SPR assay; for Kd: SPR, sACE1 on CM5 chip, 0.39-50.0 µM metabolite, 25 °C, read-out: KD (equilibrium dissociation constant)
T1 construct: The cDNA coding for the soluble C domain of ACE1 (Ile640-Ala1231) was obtained by PCR amplification; HSA signal peptide (N); made in house; host or cells: HEK293 (transient transfection, protein purified from the culture supernatant)

[2] = test system: ACE1 (angiotensin-converting enzyme); assay: ACE inhibition measurement with ACE1 activity test kit (fluorescence); type: biochemical; settings: for Inhibition rate (%) of ACE1 activity, relative to captopril taken as 100%: TCM metabolite at 25 uM

T1 sequence (P12821 640-1231): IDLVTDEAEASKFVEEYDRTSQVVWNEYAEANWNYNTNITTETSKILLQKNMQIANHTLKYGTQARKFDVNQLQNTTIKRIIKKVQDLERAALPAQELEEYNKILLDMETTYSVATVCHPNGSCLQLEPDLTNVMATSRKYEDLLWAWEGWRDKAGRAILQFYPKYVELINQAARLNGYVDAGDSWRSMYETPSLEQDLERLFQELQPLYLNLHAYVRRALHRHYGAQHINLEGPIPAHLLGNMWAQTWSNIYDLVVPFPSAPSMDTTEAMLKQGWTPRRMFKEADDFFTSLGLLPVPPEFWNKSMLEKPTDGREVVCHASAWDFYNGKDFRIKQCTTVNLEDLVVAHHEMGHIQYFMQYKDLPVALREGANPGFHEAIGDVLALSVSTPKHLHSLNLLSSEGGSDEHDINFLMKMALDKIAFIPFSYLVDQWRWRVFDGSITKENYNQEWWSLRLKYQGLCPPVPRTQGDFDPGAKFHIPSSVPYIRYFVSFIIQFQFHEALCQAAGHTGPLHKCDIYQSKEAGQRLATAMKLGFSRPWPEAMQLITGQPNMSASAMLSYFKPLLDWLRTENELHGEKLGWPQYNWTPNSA

| Molecule | Inhibition rate (%) of ACE1 activity ([2]; captopril (positive control) at 1 uM) [%] | ACE1 inhibition in vitro (in words) ([2]; enzyme activity test) | Binding to sACE1 by SPR (in words) [1] | Kd [1] [µM] | Inhibition rate (%) of ACE1 activity, relative to captopril taken as 100% [2] [%] |
| --- | --- | --- | --- | --- | --- |
| O=c1c(O)c(-c2ccc(O)c(O)c2)oc2cc(O)cc(O)c12 [Quercetin] | – | – | bound to sACE1 on the chip in a dose-dependent manner | – | – |
| O=c1cc(-c2ccc(O)c(O)c2)oc2c([C@@H]3O[C@H](CO)[C@@H](O)[C@H](O)[C@H]3O)c(O)cc(O)c12 [Orientin] | – | – | bound to sACE1 on the chip in a dose-dependent manner | 9.32 | – |
| O=c1c(O[C@@H]2O[C@H](CO)[C@@H](O)[C@H](O)[C@H]2O)c(-c2ccc(O)c(O)c2)oc2cc(O)cc(O)c12 [Isoquercitrin] | – | – | bound to sACE1 on the chip in a dose-dependent manner | 5.76 | 35.6 |
| O=c1cc(-c2ccc(O)c(O)c2)oc2cc(O)c([C@@H]3O[C@H](CO)[C@@H](O)[C@H](O)[C@H]3O)c(O)c12 [Homoorientin] | – | – | bound to sACE1 on the chip in a dose-dependent manner | 10.2 | – |
| O=c1c(-c2ccc(O)cc2)coc2c([C@@H]3O[C@H](CO)[C@@H](O)[C@H](O)[C@H]3O)c(O)ccc12 [Puerarin] | – | – | bound to sACE1 on the chip in a dose-dependent manner | 13.8 | – |
| Procyanidin | – | – | bound to sACE1 on the chip in a dose-dependent manner | – | 67.5 |
| Oc1cc(O)c2c(c1)O[C@H](c1ccc(O)c(O)c1)[C@@H](O)C2 [Cianidanol] | – | – | bound to sACE1 on the chip in a dose-dependent manner | 48.3 | – |

More lines, main results first:

| Inhibition rate (%) of ACE1 activity ([2]; captopril (positive control) at 1 uM) [%] | ACE1 inhibition in vitro (in words) ([2]; enzyme activity test) | Molecule | Binding to sACE1 by SPR (in words) [1] | Kd [1] [µM] | Inhibition rate (%) of ACE1 activity, relative to captopril taken as 100% [2] [%] |
| --- | --- | --- | --- | --- | --- |
| 101.5 | – | C[C@H](CS)C(=O)N1CCC[C@H]1C(=O)O [Captopril, reference compound] | – | – | – |
| – | did not inhibit ACE1 in vitro | Oc1ccc(/C=C/c2cc(O)cc(O)c2)cc1 [Resveratrol] | – | – | – |
